# Data published in the supplement of paper PMC11208160.
# Assay: recombinant UMI read abundance after kanamycin selection (control-corrected) (log10(CPM+1)); higher = more efficient recombination; extreme values may be limits of the assay; sequences stand for … in AGTGCAGAGAAAATCGGCCAGTTTTCTCTGCCTGCAGTCCGCATGCCGTGGGACCCCTTGGGTTCTAACCTGTTGCCTAGATTTATGCAGCGGACTGCCTTTCTCCCAAAGTGATAAACCGG…AGGTTGGTTTCACT; site = the 11-nt donor
# In short: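 Pooled Escherichia coli screen of donor and donor-binding-loop pairs for the IS621 bridge recombinase. Each pair sits with a 12-nt UMI on a plasmid carrying a promoterless kanamycin gene. The library was co-electroporated with a target plasmid encoding a fixed target and T7-inducible recombinase, then plated with IPTG (0.07 mM) plus kanamycin, or unselected, each in two replicates. Recombinant UMIs were PCR-amplified across the donor–target junction and sequenced. Counts became CPM, averaged over replicates, scaled by control-derived factors and reported as log10(CPM+1).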
row,Sequence,recombinant UMI read abundance (log10)
1,GGAGTGGCATGGACCGGTTTTCCCGGTAATCCGTATTTGGT (site GGAGTGGCTAT),0.592
2,GGAGTGGCATGGACCGGTTTTCCCGGTAATCCGTATTTGGT (site GGAGTGGCTCC),0.0114
3,GGAGTGGCATGGACCGGTTTTCCCGGTAATCCGTATTTGGT (site GGAGTGGCTGC),0.537
4,GGAGTGGCATGGACCGGTTTTCCCGGTAATCCGTATTTGGT (site GGAGTGGCTTC),0.0104
5,GGAGTGGCATGGACCGGTTTTCCCGGTAATCCGTATTTGGT (site GGAGTGTCTAC),1.1
6,GGAGTGGCATGGACCGGTTTTCCCGGTAATCCGTATTTGGT (site GGAGTTGCTAC),0
7,GGAGTGGCATGGACCGGTTTTCCCGGTAATCCGTATTTGGT (site GGATTGGCTAC),0.458
8,GGAGTGGCATGGACCGGTTTTCCCGGTAATCCGTATTTGGT (site GGCGTGGCTAC),0.0051
9,GGAGTGGCATGGACCGGTTTTCCCGGTAATCCGTATTTGGT (site GGGGTGGCTAC),0.0193
10,GGAGTGGCATGGACCGGTTTTCCCGGTAATCCGTATTTGGT (site GGTGTGGCTAC),0.564
11,GGAGTGGCATGGACCGGTTTTCCCGGTAATCCGTATTTGGT (site GTAGTGGCTAC),0.294
12,GGAGTGGCATGGACCGGTTTTCCCGGTAATCCGTATTTGGT (site TGAGTGGCTAC),0.32
13,GGATCATCATGGACCGGTTTTCCCGGTAATCCGTATTTGAT (site CGATCATCTAG),0
14,GGATCATCATGGACCGGTTTTCCCGGTAATCCGTATTTGAT (site GGATCATCTAT),0.00412
15,GGATCATCATGGACCGGTTTTCCCGGTAATCCGTATTTGCT (site AGATCATCTAG),0
16,GGATCATCATGGACCGGTTTTCCCGGTAATCCGTATTTGCT (site CGATCATCTAG),0.511
17,GGATCATCATGGACCGGTTTTCCCGGTAATCCGTATTTGCT (site GGATCATCTAG),1.59
18,GGATCATCATGGACCGGTTTTCCCGGTAATCCGTATTTGCT (site TGATCATCTAG),0.91
19,GGATCCCCATGGACCGGTTTTCCCGGTAATCCGTATTTGCT (site GGATCCCCTAG),0.0066
20,GGATCGACATGGACCGGTTTTCCCGGTAATCCGTATTTGTT (site AGATCGACTAA),0.0171
21,GGATCGACATGGACCGGTTTTCCCGGTAATCCGTATTTGTT (site CGATCGACTAA),0.00751
22,GGATCGACATGGACCGGTTTTCCCGGTAATCCGTATTTGTT (site GGATCGACTAA),0.7
23,GGATCGACATGGACCGGTTTTCCCGGTAATCCGTATTTGTT (site TGATCGACTAA),0.00972

row,Sequence,recombinant UMI read abundance (log10)
1,GGATCGGCATGGACCGGTTTTCCCGGTAATCCGTATTTGAC (site GGATCGGCTGT),1.87
2,GGATGATCATGGACCGGTTTTCCCGGTAATCCGTATTTGCT (site CGATCATCTAG),0
3,GGATGATCATGGACCGGTTTTCCCGGTAATCCGTATTTGCT (site GGATGATCTAG),2.36
4,GGATTATCATGGACCGGTTTTCCCGGTAATCCGTATTTGAT (site GGATTATCTAT),1.82
5,GGATTGACATGGACCGGTTTTCCCGGTAATCCGTATTTGCC (site GGATAGACTGG),1.42
6,GGATTGACATGGACCGGTTTTCCCGGTAATCCGTATTTGCC (site GGATCGACTGG),1.06
7,GGATTGACATGGACCGGTTTTCCCGGTAATCCGTATTTGCC (site GGATGGACTGG),0
8,GGATTGACATGGACCGGTTTTCCCGGTAATCCGTATTTGCC (site GGATTGACTGG),1.98
9,GGCAAACCATGGACCGGTTTTCCCGGTAATCCGTATTTGAA (site GGCAAACCTTT),0
10,GGCAAACCATGGACCGGTTTTCCCGGTAATCCGTATTTGAA (site GGCAACCCTTT),0
11,GGCAAACCATGGACCGGTTTTCCCGGTAATCCGTATTTGAA (site GGCAAGCCTTT),0.00636
12,GGCAAACCATGGACCGGTTTTCCCGGTAATCCGTATTTGAA (site GGCAATCCTTT),0
13,GGCAACCCATGGACCGGTTTTCCCGGTAATCCGTATTTGGA (site GGCAACCCTTC),0.0138
14,GGCAATCCATGGACCGGTTTTCCCGGTAATCCGTATTTGAC (site GGCAATCCTAT),0.00921
15,GGCAATCCATGGACCGGTTTTCCCGGTAATCCGTATTTGAC (site GGCAATCCTCT),0.00258
16,GGCAATCCATGGACCGGTTTTCCCGGTAATCCGTATTTGAC (site GGCAATCCTGT),0.665
17,GGCAATCCATGGACCGGTTTTCCCGGTAATCCGTATTTGAC (site GGCAATCCTTT),0
18,GGCAATCCATGGACCGGTTTTCCCGGTAATCCGTATTTGTA (site GGCAATCCTTA),0.264
19,GGCAATCCATGGACCGGTTTTCCCGGTAATCCGTATTTGTA (site GGCAATCCTTC),0.00948
20,GGCAATCCATGGACCGGTTTTCCCGGTAATCCGTATTTGTA (site GGCAATCCTTG),0
21,GGCAATCCATGGACCGGTTTTCCCGGTAATCCGTATTTGTA (site GGCAATCCTTT),0
22,GGCACAGCATGGACCGGTTTTCCCGGTAATCCGTATTTGAA (site GGCACAGCTTT),1.87
23,GGCAGAGCATGGACCGGTTTTCCCGGTAATCCGTATTTGCC (site GGCAGAGCTGG),0

row,Sequence,recombinant UMI read abundance (log10)
1,GGCCAACCATGGACCGGTTTTCCCGGTAATCCGTATTTGTT (site GGCCAACCTAA),0.00804
2,GGCCAACCATGGACCGGTTTTCCCGGTAATCCGTATTTGTT (site GGCCACCCTAA),0.0125
3,GGCCAACCATGGACCGGTTTTCCCGGTAATCCGTATTTGTT (site GGCCAGCCTAA),0.0207
4,GGCCAACCATGGACCGGTTTTCCCGGTAATCCGTATTTGTT (site GGCCATCCTAA),0.00632
5,GGCCACCCATGGACCGGTTTTCCCGGTAATCCGTATTTGCG (site GGCCACCCTCG),0.00687
6,GGCCACCCATGGACCGGTTTTCCCGGTAATCCGTATTTGCT (site GGCCACCCTAA),0.0723
7,GGCCACCCATGGACCGGTTTTCCCGGTAATCCGTATTTGCT (site GGCCACCCTAC),0.0158
8,GGCCACCCATGGACCGGTTTTCCCGGTAATCCGTATTTGCT (site GGCCACCCTAG),0
9,GGCCACCCATGGACCGGTTTTCCCGGTAATCCGTATTTGCT (site GGCCACCCTAT),0.00294
10,GGCCACCCATGGACCGGTTTTCCCGGTAATCCGTATTTGGT (site GGCCACCCTAA),0.113
11,GGCCACCCATGGACCGGTTTTCCCGGTAATCCGTATTTGGT (site GGCCACCCTAC),0.00471
12,GGCCACCCATGGACCGGTTTTCCCGGTAATCCGTATTTGGT (site GGCCACCCTAG),0
13,GGCCACCCATGGACCGGTTTTCCCGGTAATCCGTATTTGGT (site GGCCACCCTAT),0.0141
14,GGCCAGTCATGGACCGGTTTTCCCGGTAATCCGTATTTGCA (site GGCCAGTCTTG),2.73
15,GGCCATCCATGGACCGGTTTTCCCGGTAATCCGTATTTGGC (site GGCCATCCTGC),0
16,GGCCATCCATGGACCGGTTTTCCCGGTAATCCGTATTTGTT (site GGCCAACCTAA),0
17,GGCCATCCATGGACCGGTTTTCCCGGTAATCCGTATTTGTT (site GGCCACCCTAA),0.0125
18,GGCCATCCATGGACCGGTTTTCCCGGTAATCCGTATTTGTT (site GGCCAGCCTAA),0.00245
19,GGCCATCCATGGACCGGTTTTCCCGGTAATCCGTATTTGTT (site GGCCATCCTAA),0.0172
20,GGCCCGCCATGGACCGGTTTTCCCGGTAATCCGTATTTGCC (site GGCCCGCCTGG),0
21,GGCCCTACATGGACCGGTTTTCCCGGTAATCCGTATTTGTG (site GGCCCTACTCA),0.33
22,GGCCGCACATGGACCGGTTTTCCCGGTAATCCGTATTTGCA (site GGCCGCACTTG),1.77
